Results reported in patent US9919019B2, “Use of essential oil of oregano or of rosewood, or constituents thereof, in the cosmetic treatment of keratoses” (L'Oreal, priority 2010, dated 2018).

Test system: A431 cells
Assay: Annexin V/propidium iodide (AV/PI) apoptosis test in A431 cells
Format: cell-based, human
Details: for death by targeted apoptosis of mutated cancer cells / cytotoxic efficacy compared with complex essential oils: 12 h; for death by targeted apoptosis of mutated cancer cells: A431 versus HEK001, concentrations equal to those present in the EO treatments (linalool 320 nL/mL, carvacrol 60 nL/mL, thymol 30 nL/mL); for cytotoxic efficacy compared with complex essential oils: equivalent dose; for apoptotic A431 cells: 12 h of treatment
Experimental: These three molecules were incubated for 12 h with non-mutated immortalized keratinocytes (HEK001) and mutated cancerous keratinocytes (A431). The percentage of cells in apoptosis was measured by the annexin V/propidium iodide test. The concentrations of the molecules used were equal to those present during the treatments with the essential oils. Example: the concentration of linalool used here represents the equivalent of 80% of linalool present in the essential oil of rosewood.
Thirty six hours before the treatment, the cells were distributed into a 96-well plate (5×10^5 cells/mL).
EO treatment solution: the essential oils were diluted to 1/10th a first time in 100% ethanol. Next, a second dilution was carried out in culture medium in order to obtain the desired concentrations.
The AV/PI test can be used to detect this event because of the affinity of the protein annexin V for phosphatidyl-serine. Propidium iodide, which targets DNA, can be used to distinguish early apoptotic cells from cells in late apoptosis and/or in necrosis.
After the desired treatment time, the medium was eliminated, the cells were harvested (by trypsinization), centrifuged and rinsed in 4 mL of PBS 1×. Tagging was carried out following the instructions of the manufacturer (Kit Vybrant, Molecular Probe). The cells were rapidly taken up in 100 μl of tagging buffer, to which 6 μl of annexin V and 3 μg/mL of propidium iodide per sample was added. The cells were then incubated for 30 min in the dark (at ambient temperature). Four hundred μL of tagging buffer was added before measuring the fluorescence of the annexin V (at 530 nm) and of the propidium iodide (at 610 nm).

SMILES | death by targeted apoptosis of mutated cancer cells | cytotoxic efficacy compared with complex essential oils | apoptotic A431 cells (carvacrol 60 nL/mL) | apoptotic A431 cells (thymol 30 nL/mL)
Cc1ccc(C(C)C)cc1O [carvacrol] | qualitatively conserved | lower than with complex essential oils | ~25% | 
C=CC(C)(O)CCC=C(C)C (centres unmarked) [linalool] | qualitatively conserved | lower than with complex essential oils |  | 
Cc1ccc(C(C)C)c(O)c1 [thymol] | qualitatively conserved | lower than with complex essential oils |  | approximately 15%
